Read-outs that look alike come from different tables or passages of the source.
Tests used:
RARα = molecular target: T1, RARα (Homo sapiens, UniProt P10276); details: cited from earlier work
T1 sequence (P10276 1-462): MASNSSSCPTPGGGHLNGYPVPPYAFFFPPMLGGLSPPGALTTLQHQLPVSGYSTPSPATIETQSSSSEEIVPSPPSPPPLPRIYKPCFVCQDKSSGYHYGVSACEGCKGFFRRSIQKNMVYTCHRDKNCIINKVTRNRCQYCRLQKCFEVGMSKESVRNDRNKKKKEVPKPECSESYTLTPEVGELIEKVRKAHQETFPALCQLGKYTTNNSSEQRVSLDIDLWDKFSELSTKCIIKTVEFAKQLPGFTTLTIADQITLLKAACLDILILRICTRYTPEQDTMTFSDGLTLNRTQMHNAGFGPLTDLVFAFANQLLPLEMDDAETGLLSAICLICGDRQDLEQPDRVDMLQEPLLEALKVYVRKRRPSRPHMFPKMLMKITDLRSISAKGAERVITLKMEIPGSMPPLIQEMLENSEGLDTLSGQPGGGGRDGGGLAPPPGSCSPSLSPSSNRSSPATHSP

acne = details: animals; cited from earlier work
[1] = Particle size of pulverized adapalene raw material, laser particle size analyzer, dry detection; type: physicochemical; details: raw material after jet-mill pulverization, dry method detection (Example 3)
From the text: Method: Taking the appropriate amount of this product, using Malvern MS3000 laser particle size analyzer, dry detection, D50 should not greater than 10 μm, D90 should not greater than 30 um.
After pulverization the raw materials of adapalene was subjected to dry method detection and D50 was found not more than 10 um, D90 was found not more than 30 um. Adapalene was pulverized using a jet mill to achieve the target particle size.

RARPβ = molecular target: T2, RARPβ (Homo sapiens, UniProt P10826); details: cited from earlier work
T2 sequence (P10826 1-455): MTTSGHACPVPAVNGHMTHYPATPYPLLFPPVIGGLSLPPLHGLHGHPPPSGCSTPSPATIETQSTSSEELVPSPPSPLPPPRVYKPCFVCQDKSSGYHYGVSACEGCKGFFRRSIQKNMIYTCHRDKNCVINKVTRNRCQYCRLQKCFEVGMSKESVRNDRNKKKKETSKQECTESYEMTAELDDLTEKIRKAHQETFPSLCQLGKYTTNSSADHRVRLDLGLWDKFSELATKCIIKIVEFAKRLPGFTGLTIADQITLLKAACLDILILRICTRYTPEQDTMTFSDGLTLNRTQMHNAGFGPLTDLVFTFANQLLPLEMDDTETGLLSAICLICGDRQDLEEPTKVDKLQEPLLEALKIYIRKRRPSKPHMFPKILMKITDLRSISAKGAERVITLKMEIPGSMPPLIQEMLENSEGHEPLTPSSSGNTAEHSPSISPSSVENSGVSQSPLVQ

[2] = cited from earlier work
RARγ = molecular target: T3, RARγ (Homo sapiens, UniProt P13631); details: cited from earlier work
T3 sequence (P13631 1-454): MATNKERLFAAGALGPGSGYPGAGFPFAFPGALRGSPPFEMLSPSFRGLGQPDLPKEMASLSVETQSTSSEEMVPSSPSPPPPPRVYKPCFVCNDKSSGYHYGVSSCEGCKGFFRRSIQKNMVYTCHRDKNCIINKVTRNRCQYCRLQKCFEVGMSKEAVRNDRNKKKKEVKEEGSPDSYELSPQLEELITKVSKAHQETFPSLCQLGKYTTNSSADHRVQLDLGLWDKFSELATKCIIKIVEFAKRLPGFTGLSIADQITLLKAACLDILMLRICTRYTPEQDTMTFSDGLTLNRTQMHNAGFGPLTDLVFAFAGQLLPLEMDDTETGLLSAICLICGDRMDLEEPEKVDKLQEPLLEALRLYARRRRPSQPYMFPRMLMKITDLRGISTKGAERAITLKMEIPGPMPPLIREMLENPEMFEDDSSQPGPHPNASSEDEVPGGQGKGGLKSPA

[3] = system: glutamine invertase of keratinocytes; details: in vitro; cited from earlier work

D50 [1]: not more than 10 um
D90 [1]: not more than 30 um
SMILES: COc1ccc(-c2ccc3cc(C(=O)O)ccc3c2)cc1C12CC3CC(CC(C3)C1)C2 [Adapalene, 6-[3-(1-adamantyl)-4-methoxyphenyl]-2-naphthoic acid]
binding to RARα (RARα): weak binding
effects in animal experiments (acne): acne dissolution and local anti-inflammatory effects
binding to RARPβ (RARPβ): mainly binds
solubility ([2]; in ethanol): insoluble
solubility ([2]; in tetrahydrofuran): slightly soluble
solubility ([2]; in water): insoluble
binding to RARγ (RARγ): mainly binds
inhibition of glutamine invertase of keratinocytes [3]: inhibits
